In US6962909B2, “Treatment of neovascularization disorders with squalimine” (Genaera Corporation, priority 1995, dated 2005):
Values after ≈ are worked out from the molar mass of the structure shown.

Assays:
[1] = system: human microvascular cells; assay: Endothelial cord formation assay; format: cell-based; for Effect on endothelial cord formation: key: + = Inhibition of angiogenesis; − = No inhibition of angiogenesis; T = Toxic; *= cell rounding @ 10 µg/ml
From the text: Endothelial cells have the capacity in vitro to form tubular aggregates resembling capillaries in various early stages of formation. This conversion occurs under relatively specific conditions, in which essential growth factors along with an effective substratum are provided. It has been shown that both the interaction of growth factors with the endothelial cell and its attachment to a substratum activate the NHE. The activation of this exchanger is believed to be required for subsequent morphologic transformation of the endothelial cell into a multicellular tubular structure.
To assess the effect of compounds on the cord-like structures formed by human microvascular cells when plated in the presence of VGEF (Vascular Endothelial Growth Factor) and basic fibroblast growth factor on a collagen matrix, a standard cord formation assay was used.

[2] = system: vitelline capillaries of 3- to 5-day chick embryo; assay: Chick embryo vitelline capillary regression assay; format: in vivo; parameters: key to Vascular reactivity (capillary regression): + = Vascular reactivity; 0 = No vascular reactivity; +/− = Equivocal reactivity; conditions: 60 minutes
Experimental: Using the chick embryo vitelline capillaries assay, compounds were tested for their ability to induce capillary regression. Each compound was applied in 0.1 ml of 15% Ficol 400 and PBS onto the embryo, and vascular regression was assessed after 60 minutes.
The 3-day chick embryo consists of an embryonic disc from which numerous vessels emerge and return, forming a “figure 8”-shaped structure—the embryo in the center with vascular loops extending outward over both poles. […] Following a lag period of around 15 minutes, the constriction of continuity between capillary and secondary vessels, generally on the “venous” side, was observed. Continued pulsatile blood flow progressed, resulting in a “swelling” of the blind tube, followed by a pinching off of the remaining connection and formation of an enclosed vascular sac resembling a “blood island.” This process progressed until only the largest vessels remained intact.

[3] = system: Stage 59-60 Xenopus tadpoles; assay: Xenopus tadpole assay; format: in vivo, Xenopus laevis; conditions: 10 μg/ml in water
From the text: A newly developed assay employing tadpoles, preferably Xenopus laevis Stages 59-60, were employed to study the effect of a compound by monitoring capillary occlusion in the tadpole's tail. […] The compounds of the invention affect the shape, viability and integrity of the embryonic tissues while not affecting the adult tissues, providing a powerful, highly specific screen. For example, substances that destroy all of the animal's epithelium, both adult and embryonic, could be regarded as toxic.
In this assay, tadpoles are introduced into Petri dishes containing a solution of the test compound in distilled water, preferably about 100 ml. The preferred concentration of the test compound is from about 1 μg/ml to about 10 μg/ml. The volume of liquid is sufficient for the animal to swim freely and drink from the solution. Thus, the effect observed results from oral absorption and subsequent systemic distribution of the agent. If the volume of liquid is not sufficient to permit oral intake, the effects that are observed would result from absorption through the surface epithelium. Thus, this simple assay can identify if an compound has characteristics of oral availability.
After an amount of time, typically about 60 minutes, the occlusion of blood flow through capillaries in the tadpole's tail are observed under an inverted microscope at a magnification of roughly 100×.
The tadpole assay described above provides an advantageous way to determine the pharmacological targets of each steroid when introduced into a mammal, and to determine pharmacological categories into which synthetic compounds belong. In the assay, each of the steroids was dissolved in 100 ml of distilled water at a concentration of 10 μg/ml. Stage 59-60 Xenopus tadpoles were introduced and evaluated by light microscopy and gross observation 1 hour later.

S. aureus = assay: Antibiotic activity, MIC; format: cell-based; conditions: Staphylococcus aureus
E. coli = assay: Antibiotic activity, MIC; format: cell-based; conditions: Escherichia coli

CC(CCC(=O)O)[C@H]1CCC2C3C(CC[C@@]21C)[C@@]1(C)CC[C@H](NCCN)C[C@H]1C[C@H]3O (stereo partly drawn)
Cord Formation, Minimum Effective Concentration [1]: >10 µg/mL

CC(CCC(=O)O)[C@H]1CCC2C3C(CC[C@@]21C)[C@@]1(C)CC[C@@H](NCCCNCCCCN)C[C@@H]1C[C@H]3O (stereo partly drawn) [Compound 382]
Vascular reactivity (capillary regression) ([2]; 0.001 μg applied): 0
Vascular reactivity (capillary regression) ([2]; 0.01 μg applied): 0
Vascular reactivity (capillary regression) ([2]; 0.1 μg applied): 0
Vascular reactivity (capillary regression) ([2]; 1 μg applied): +
Vascular reactivity (capillary regression) ([2]; 10 μg applied): +

CC(C)CCCC(C)[C@H]1CCC2C3C(CC[C@@]21C)[C@@]1(C)CC[C@@H](N)C[C@@H]1C[C@H]3O (stereo partly drawn) [Compound 1363]
Pharmacological category in tadpole assay (similarity to a reference steroid) [3]: pharmacologic activity similar to Fraction 1

CO[C@@H]1[C@H](OC(=O)/C=C/C=C/C=C/C=C/C(=O)O)CC[C@]2(CO2)[C@H]1[C@@]1(C)O[C@@H]1CC=C(C)C [Fumagillin, reference compound]
Concentration that inhibits cord formation [1]: 10 µg/mL
Effect on endothelial cord formation ([1]; 0.1 μg/ml): −
Effect on endothelial cord formation ([1]; 10.0 μg/ml): +

CC(C)CCCC(C)[C@H]1CCC2C3CC[C@H]4C[C@@H](NCCCNCCCCN)CC[C@]4(C)C3CC[C@@]21C (stereo partly drawn) [Compound 303]
Vascular reactivity (capillary regression) ([2]; 1 μg applied): 0

CC(CCC(=O)O)[C@H]1CCC2C3C(CC[C@@]21C)[C@@]1(C)CC[C@H](NCCCNCCCCNCCCN)C[C@H]1C[C@H]3O (stereo partly drawn) [drawing 154]
Cord Formation, Minimum Effective Concentration [1]: >10 µg/mL

COC(=O)CCC(C)[C@H]1CCC2C3C(CC[C@@]21C)[C@@]1(C)CC[C@H](NCCCNCCCCNCCCN)C[C@@H]1C[C@H]3O (stereo partly drawn) [Compound 396]
Vascular reactivity (capillary regression) ([2]; 0.001 μg applied): 0
Vascular reactivity (capillary regression) ([2]; 0.01 μg applied): 0
Vascular reactivity (capillary regression) ([2]; 0.1 μg applied): 0
Vascular reactivity (capillary regression) ([2]; 1 μg applied): +

COC(=O)CCC(C)[C@H]1CCC2C3C[C@@H](O)[C@H]4C[C@@H](NCCCNCCCCNCCCN)CC[C@]4(C)C3CC[C@@]21C (stereo partly drawn) [Compound 466]
Pharmacological category in tadpole assay (similarity to a reference steroid) [3]: pharmacologic activity similar to that seen for FX 3

COC(=O)CCC(C)[C@H]1CCC2C3CC[C@@H]4C[C@H](NCCN)CC[C@]4(C)C3C[C@H](O)[C@@]21C (stereo partly drawn) [Compound 416]
Pharmacological category in tadpole assay (similarity to a reference steroid) [3]: functionally similar to compound 1437

CC(CCC(=O)O)[C@H]1CCC2C3C(CC[C@@]21C)[C@@]1(C)CC[C@H](NCCCNCCCCNCCCN)C[C@@H]1C[C@H]3O (stereo partly drawn)
MIC (S. aureus): 16 µg/mL (≈ 27.7 µM)
MIC (E. coli): 32 to 64 µg/mL (≈ 55.5 to 111 µM)

CC(C)CCCC(C)[C@H]1CCC2C3C(CC[C@@]21C)[C@@]1(C)CC[C@H](N)C[C@@H]1C[C@H]3O (stereo partly drawn) [Compound 1364]
Vascular reactivity (capillary regression) ([2]; 0.001 μg applied): 0
Vascular reactivity (capillary regression) ([2]; 0.01 μg applied): 0
Vascular reactivity (capillary regression) ([2]; 0.1 μg applied): 0
Vascular reactivity (capillary regression) ([2]; 1 μg applied): +
Vascular reactivity (capillary regression) ([2]; 10 μg applied): +

CC(CCC(=O)O)[C@H]1CCC2C3C(CC[C@@]21C)[C@@]1(C)CC[C@@H](NCCCNCCCCNCCCN)C[C@H]1C[C@H]3O (stereo partly drawn) [drawing 72]
MIC (S. aureus): 8 µg/mL (≈ 13.9 µM)

COC(=O)CCC(C)[C@H]1CCC2C3C(CC[C@@]21C)[C@@]1(C)CC[C@H](NCCCNCCCCNCCCN)C[C@H]1C[C@H]3O (stereo partly drawn)
MIC (E. coli): 64 µg/mL (≈ 108 µM)

CC(CCC(=O)O)[C@H]1CCC2C3CC[C@H]4C[C@H](NCCCNCCCCN)CC[C@]4(C)C3CC[C@@]21C (stereo partly drawn) [Compound 318]
Vascular reactivity (capillary regression) ([2]; 1 μg applied): 0

CC(CCC(=O)C(C)(C)OS(=O)(=O)O)[C@H]1CCC2C3C(CC[C@@]21C)[C@@]1(C)CC[C@H](NCCCNCCCCN)C[C@@H]1C[C@H]3O (stereo partly drawn) [FX1A]
Pharmacological response observed in tadpole ([3]; about 1 hour): fecal elimination is dramatically increased

COC(=O)CCC(C)[C@H]1CCC2C3C[C@@H](O)[C@H]4C[C@H](NCCN)CC[C@]4(C)C3CC[C@@]21C (stereo partly drawn)
MIC (E. coli): 32 to 64 µg/mL (≈ 71.3 to 143 µM)

COC(=O)CCC(C)[C@H]1CCC2C3C[C@@H](O)[C@H]4C[C@H](NCCN)CC[C@]4(C)C3CC[C@@]21C (stereo partly drawn) [Compound 431]
Pharmacological category in tadpole assay (similarity to a reference steroid) [3]: functionally similar to compound 1437

CC(C)CCCC(C)[C@H]1CCC2C3C(CC[C@@]21C)[C@@]1(C)CC[C@@H](NCCCNCCCCN)C[C@@H]1C[C@H]3O (stereo partly drawn) [Compound 370]
Pharmacological category in tadpole assay (similarity to a reference steroid) [3]: pharmacologic activity similar to that seen for FX 3

COC(=O)CCC(C)[C@H]1CCC2C3C[C@@H](O)[C@H]4C[C@H](NCCCNCCCCNCCCN)CC[C@]4(C)C3CC[C@@]21C (stereo partly drawn) [Compound 465]
Pharmacological category in tadpole assay (similarity to a reference steroid) [3]: pharmacologic activity similar to that seen for FX 3

CC(CCC(=O)O)[C@H]1CCC2C3C(CC[C@@]21C)[C@@]1(C)CC[C@H](NCCCNCCCCN)C[C@@H]1C[C@H]3O (stereo partly drawn) [Compound 381]
Vascular reactivity (capillary regression) ([2]; 1 μg applied): 0

CC(CCC(=O)O)[C@H]1CCC2C3CC[C@@H]4C[C@H](NCCCNCCCCNCCCN)CC[C@]4(C)C3C[C@H](O)[C@@]21C (stereo partly drawn) [Compound 449]
Effect on endothelial cord formation ([1]; 1.0 μg/ml): −

COC(=O)CCC(C)[C@H]1CCC2C3C(CC[C@@]21C)[C@@]1(C)CC[C@@H](NCCN)C[C@H]1C[C@H]3O (stereo partly drawn) [drawing 118]
Cord Formation, Minimum Effective Concentration [1]: 10 µg/mL

CC(CCC(=O)O)[C@H]1CCC2C3C(CC[C@@]21C)[C@@]1(C)CC[C@@H](NCCCNCCCCNCCCN)C[C@H]1C[C@H]3O (stereo partly drawn) [drawing 152]
Cord Formation, Minimum Effective Concentration [1]: >10 µg/mL

COC(=O)CCC(C)[C@H]1CCC2C3CC[C@H]4C[C@@H](NCCCNCCCCNCCCN)CC[C@]4(C)C3CC[C@@]21C (stereo partly drawn) [Compound 459]
Pharmacological category in tadpole assay (similarity to a reference steroid) [3]: pharmacologic activity similar to that seen for FX 3

COC(=O)CCC(C)[C@H]1CCC2C3CC[C@H]4C[C@H](NCCCNCCCCNCCCN)CC[C@]4(C)C3CC[C@@]21C (stereo partly drawn) [Compound 458]
Pharmacological category in tadpole assay (similarity to a reference steroid) [3]: pharmacologic activity similar to that seen for FX 3

COC(O)CCC(C)[C@H]1CCC2C3C(CC[C@@]21C)[C@@]1(C)CC[C@H](NCCCNCCCCNCCCN)C[C@H]1C[C@H]3O (stereo partly drawn)
Cord Formation, Minimum Effective Concentration [1]: 10 µg/mL

COC(=O)CCC(C)[C@H]1CCC2C3C(CC[C@@]21C)[C@@]1(C)CC[C@@H](NCCCNCCCCN)C[C@H]1C[C@H]3O (stereo partly drawn)
MIC (S. aureus): 4 µg/mL (≈ 7.49 µM)
MIC (E. coli): 32 to 64 µg/mL (≈ 59.9 to 120 µM)

COC(=O)CCC(C)[C@H]1CCC2C3C(CC[C@@]21C)[C@@]1(C)CC[C@H](NCCCNCCCCN)C[C@H]1C[C@H]3O (stereo partly drawn)
MIC (S. aureus): 64 µg/mL (≈ 120 µM)
MIC (E. coli): 256 µg/mL (≈ 480 µM)

CC(CCC(=O)O)[C@H]1CCC2C3C(CC[C@@]21C)[C@@]1(C)CC[C@H](NCCN)C[C@H]1C[C@H]3O (stereo partly drawn) [Compound 415]
Vascular reactivity (capillary regression) ([2]; 0.001 μg applied): 0
Vascular reactivity (capillary regression) ([2]; 0.01 μg applied): +
Vascular reactivity (capillary regression) ([2]; 0.1 μg applied): +
Vascular reactivity (capillary regression) ([2]; 1 μg applied): +
Effect on endothelial cord formation ([1]; 0.1 μg/ml): −
Effect on endothelial cord formation ([1]; 1.0 μg/ml): −
Effect on endothelial cord formation ([1]; 10.0 μg/ml): +/T

CC(CCC(=O)O)[C@H]1CCC2C3C(CC[C@@]21C)[C@@]1(C)CC[C@H](NCCCNCCCCNCCCN)C[C@H]1C[C@H]3O (stereo partly drawn) [drawing 73]
MIC (S. aureus): 8 µg/mL (≈ 13.9 µM)
MIC (E. coli): 256 µg/mL (≈ 444 µM)

COC(=O)CCC(C)[C@H]1CCC2C3C(CC[C@@]21C)[C@@]1(C)CC[C@@H](NCCN)C[C@H]1C[C@H]3O (stereo partly drawn) [drawing 70]
MIC (S. aureus): 16 µg/mL (≈ 35.7 µM)
MIC (E. coli): 16 µg/mL (≈ 35.7 µM)

COC(=O)CCC(C)[C@H]1CCC2C3C(CC[C@@]21C)[C@@]1(C)CC[C@H](NCCCNCCCCNCCCN)C[C@H]1C[C@H]3O (stereo partly drawn) [Compound 411]
Vascular reactivity (capillary regression) ([2]; 0.001 μg applied): 0
Vascular reactivity (capillary regression) ([2]; 0.01 μg applied): 0
Vascular reactivity (capillary regression) ([2]; 0.1 μg applied): 0
Vascular reactivity (capillary regression) ([2]; 1 μg applied): +/−
Effect on endothelial cord formation ([1]; 0.1 μg/ml): −
Effect on endothelial cord formation ([1]; 1.0 μg/ml): −
Effect on endothelial cord formation ([1]; 10.0 μg/ml): +

CC(CCC(=O)O)[C@H]1CCC2C3C[C@@H](O)[C@H]4C[C@@H](NCCCNCCCCNCCCN)CC[C@]4(C)C3CC[C@@]21C (stereo partly drawn) [Compound 467]
Effect on endothelial cord formation ([1]; 1.0 μg/ml): −
Effect on endothelial cord formation ([1]; 10.0 μg/ml): −

CC(C)CCCC(C)[C@H]1CCC2C3C(CC[C@@]21C)[C@@]1(C)CC[C@H](N)C[C@@H]1C[C@H]3O (stereo partly drawn)
MIC (S. aureus): 2 µg/mL (≈ 4.95 µM)
MIC (E. coli): > 256 µg/mL
